Where two headings read alike, the source gives them in different places. Positions of bridges follow the written chain, without caps; N, C: chain ends. Residues, ends and D or L forms follow the SMILES beside them. No end group written: not given here.
Tests used:
red blood cells (RBC) [1] = assay: RBC swelling (enlarged pellet after centrifugation); details: 1 h; for RBC swelling: peptides diluted in PBS (absence of serum), up to 20 µM, pellet size after centrifugation
[2] = system: mouse cytomegalovirus (MCMV)/NIH/3T3 cells; details: 72 h
Baculovirus/HEK293 = details: for IC50: 24 h; for fold higher IC50 value compared to TAT-I24, baculovirus-transduced HEK293 cells: ratio to TAT-I24 IC50
plasmid-DNA (dsDNA) = assay: Fluorescence-based dsDNA-binding assay (SYBR Gold, plasmid DNA); details: TAT-I24 as reference, three independent experiments in duplicates
Description: We also included the TAT peptide, which binds DNA [34, 35].
Peptides were incubated with plasmid-DNA in the presence of SYBR^TM Gold dye. Reduction in fluorescence indicates binding of peptides to DNA. […] Curve fitting was performed using GraphPad Prism software.
DNA binding assay was performed, as described previously [26].

red blood cells (RBC) [3] = details: RBC 1 h 37 °C; for haemolysis: OD 450 nm of supernatant
Description: Figure 4 Effect of peptides on haemolysis and RBC swelling. (A,B) RBCs were isolated and treated in conical 96-well plates with peptides diluted in PBS or in 10% donor serum for one hour. OD [450 nm] was determined in the supernatants after centrifugation of the plates. Mean ± SD from two experiments in triplicates are shown. […] Dashed lines indicate background OD. (C) Swelling of RBC after treatment with dilutions of peptides in PBS for one hour and centrifugation of the plates. Red wells indicate an enlarged cell pellet due to swelling of the RBCs. Sequences of the peptides are shown at the right and are indicated in red with the TAT fusion partner indicated in blue.
Whole blood was collected from a healthy volunteer after informed consent by venipuncture into K2E K2EDTA VacuetteTM tubes (Greiner Bio-One, Kremsmünster, Austria) with 4 mL blood. The assay for haemolysis was adapted from Sæbo et al. and performed as described previously. In brief, blood was centrifuged at 1000× g for 10 min, and plasma kept for further use, followed by resuspension of red blood cells (RBC) in PBS and centrifugation for three times. RBC were seeded at a cell number of 1 × 10^7 cells/100 µL PBS per well into conical 96-well plates (ThermoFisher, Darmstadt, Germany) and incubated with 100 µL of 1:2 peptide dilutions starting from 40 µM either in PBS or 10% donor serum. Plates were incubated at 37 °C for one hour before at 1000× g for 5 min. Supernatants were then transferred to flat 96-well plates and optical density (OD) was determined at 450 nm using a Glo-Max®-Multi Detection System (Promega, Mannheim, Germany). As positive control, cells were lysed with 0.5% Triton X-100. Images from centrifuged plates were taken using a Kodak PIXPRO camera (Rochester, NY, USA).

[4] = system: DiO-labelled MCMV in NIH/3T3 cells; details: previous study; cited from earlier work
Description: In contrast, the peptide TAT-M214, whi ...

Row | Compound | RBC swelling (red blood cells (RBC) [1]) | IC50 [2] [µM] | IC50 (Baculovirus/HEK293) [µM] | dsDNA-binding (reduction in SYBR Gold fluorescence) (plasmid-DNA (dsDNA)) | fold higher IC50 value compared to TAT-I24, baculovirus-transduced HEK293 cells (Baculovirus/HEK293) | further results
1 | CC(C)C[C@H](NC(=O)[C@H](CS)NC(=O)[C@H](C)NC(=O)[C@H](Cc1ccc(O)cc1)NC(=O)[C@H](Cc1ccccc1)NC(=O)[C@H](C)NC(=O)[C@H](CC(C)C)NC(=O)[C@H](CCC(N)=O)NC(=O)[C@@H]1CCCN1C(=O)[C@@H]1CCCN1C(=O)[C@H](CCCNC(=N)N)NC(=O)[C@H](CCCNC(=N)N)NC(=O)[C@H](CCCNC(=N)N)NC(=O)[C@H](CCC(N)=O)NC(=O)[C@H](CCCNC(=N)N)NC(=O)[C@H](CCCNC(=N)N)NC(=O)[C@H](CCCCN)NC(=O)[C@H](CCCCN)NC(=O)[C@H](CCCNC(=N)N)NC(=O)CN)C(=O)N[C@@H](C)C(=O)N[C@@H](Cc1ccccc1)C(=O)N[C@@H](CS)C(=O)O [TAT-M14] (H-GRKKRRQRRRPPQLAFYACLAFC-OH; N-terminus and C-terminus assumed) | caused RBC swelling at higher concentrations | 2.57 | 0.034 | bind dsDNA | – | –
2 | CC(C)C[C@H](NC(=O)[C@H](CCC(N)=O)NC(=O)[C@@H]1CCCN1C(=O)[C@H](CO)NC(=O)[C@H](CS)NC(=O)[C@H](CCC(N)=O)NC(=O)[C@@H]1CCCN1C(=O)[C@@H]1CCCN1C(=O)[C@H](CCCNC(=N)N)NC(=O)[C@H](CCCNC(=N)N)NC(=O)[C@H](CCCNC(=N)N)NC(=O)[C@H](CCC(N)=O)NC(=O)[C@H](CCCNC(=N)N)NC(=O)[C@H](CCCNC(=N)N)NC(=O)[C@H](CCCCN)NC(=O)[C@H](CCCCN)NC(=O)[C@H](CCCNC(=N)N)NC(=O)CN)C(=O)N[C@@H](C)C(=O)N1CCC[C@H]1C(=O)N[C@@H](Cc1ccccc1)C(=O)N[C@@H](CS)C(=O)O [TAT-M41] (H-GRKKRRQRRRPPQCSPQLAPFC-OH; N-terminus and C-terminus assumed) | did not cause RBC swelling in the absence of serum even at 20 µM | – | 0.434 | less dsDNA-binding | approximately 20 fold | –
3 | CC(C)C[C@H](NC(=O)[C@H](CO)NC(=O)[C@H](CC(C)C)NC(=O)[C@H](CCC(N)=O)NC(=O)[C@H](CS)NC(=O)[C@H](CCC(N)=O)NC(=O)[C@@H]1CCCN1C(=O)[C@@H]1CCCN1C(=O)[C@H](CCCNC(=N)N)NC(=O)[C@H](CCCNC(=N)N)NC(=O)[C@H](CCCNC(=N)N)NC(=O)[C@H](CCC(N)=O)NC(=O)[C@H](CCCNC(=N)N)NC(=O)[C@H](CCCNC(=N)N)NC(=O)[C@H](CCCCN)NC(=O)[C@H](CCCCN)NC(=O)[C@H](CCCNC(=N)N)NC(=O)CN)C(=O)N[C@@H](C)C(=O)N1CCC[C@H]1C(=O)N[C@@H](Cc1ccc(O)cc1)C(=O)N[C@@H](CS)C(=O)O [TAT-M42] (H-GRKKRRQRRRPPQCQLSLAPYC-OH; N-terminus and C-terminus assumed) | did not cause RBC swelling in the absence of serum even at 20 µM | – | 0.378 | less dsDNA-binding | approximately 20 fold | –
4 | CC(C)C[C@H](NC(=O)[C@H](CO)NC(=O)[C@H](CS)NC(=O)[C@H](CCC(N)=O)NC(=O)[C@@H]1CCCN1C(=O)[C@@H]1CCCN1C(=O)[C@H](CCCNC(=N)N)NC(=O)[C@H](CCCNC(=N)N)NC(=O)[C@H](CCCNC(=N)N)NC(=O)[C@H](CCC(N)=O)NC(=O)[C@H](CCCNC(=N)N)NC(=O)[C@H](CCCNC(=N)N)NC(=O)[C@H](CCCCN)NC(=O)[C@H](CCCCN)NC(=O)[C@H](CCCNC(=N)N)NC(=O)CN)C(=O)N[C@@H](C)C(=O)N1CCC[C@H]1C(=O)N[C@@H](C)C(=O)N[C@@H](CC(N)=O)C(=O)N[C@H](C(=O)N[C@@H](CS)C(=O)O)[C@@H](C)O [TAT-M43] (H-GRKKRRQRRRPPQCSLAPANTC-OH; N-terminus and C-terminus assumed) | did not cause RBC swelling in the absence of serum even at 20 µM | – | 0.306 | less dsDNA-binding | approximately 20 fold | –
5 | CC(C)C[C@H](NC(=O)[C@H](C)NC(=O)[C@H](Cc1ccc(O)cc1)NC(=O)[C@H](Cc1ccccc1)NC(=O)[C@H](C)NC(=O)[C@H](CC(C)C)NC(=O)[C@H](Cc1ccc(O)cc1)NC(=O)[C@@H]1CCCN1C(=O)[C@H](CCCNC(=N)N)NC(=O)[C@H](CCCNC(=N)N)NC(=O)[C@H](CCCNC(=N)N)NC(=O)[C@H](CCC(N)=O)NC(=O)[C@H](CCCNC(=N)N)NC(=O)[C@H](CCCNC(=N)N)NC(=O)[C@H](CCCCN)NC(=O)[C@H](CCCCN)NC(=O)[C@H](CCCNC(=N)N)NC(=O)CN)C(=O)N[C@@H](C)C(=O)N[C@@H](Cc1ccccc1)C(=O)N[C@@H](Cc1ccc(O)cc1)C(=O)N[C@@H](C)C(=O)N[C@@H](CS)C(=O)O [TAT-M214] (H-GRKKRRQRRRPYLAFYALAFYAC-OH) | caused RBC swelling at higher concentrations | 3.67 | 0.025 | – | – | haemolysis (red blood cells (RBC) [3]; 2.5 µM peptide diluted in PBS): 14%; haemolysis (red blood cells (RBC) [3]; 5 µM peptide diluted in PBS): 29%; haemolysis (red blood cells (RBC) [3]; 10 µM peptide diluted in PBS): 37%; haemolysis (red blood cells (RBC) [3]; 20 µM peptide diluted in PBS, two experiments in triplicates): 43%; haemolysis in the presence of 10% serum (red blood cells (RBC) [3]; peptide diluted in 10% donor serum): not in the presence of 10% serum
6 | CC(C)C[C@H](NC(=O)[C@H](Cc1ccccc1)NC(=O)[C@H](CS)NC(=O)[C@H](Cc1ccccc1)NC(=O)[C@@H]1CCCN1C(=O)[C@H](CO)NC(=O)[C@H](CCC(N)=O)NC(=O)[C@@H]1CCCN1C(=O)[C@@H]1CCCN1C(=O)[C@H](CCCNC(=N)N)NC(=O)[C@H](CCCNC(=N)N)NC(=O)[C@H](CCCNC(=N)N)NC(=O)[C@H](CCC(N)=O)NC(=O)[C@H](CCCNC(=N)N)NC(=O)[C@H](CCCNC(=N)N)NC(=O)[C@H](CCCCN)NC(=O)[C@H](CCCCN)NC(=O)[C@H](CCCNC(=N)N)NC(=O)CN)C(=O)N[C@@H](C)C(=O)N[C@@H](Cc1ccccc1)C(=O)N[C@@H](CS)C(=O)N[C@@H](Cc1ccccc1)C(=O)O [TAT-T7] (H-GRKKRRQRRRPPQSPFCFLAFCF-OH; N-terminus and C-terminus assumed) | caused RBC swelling at higher concentrations | 1.13 | 0.017 | – | – | RBC swelling in the presence of serum (red blood cells (RBC) [1]; peptides diluted in 10% human/donor serum): not in the presence of donor serum
7 | CLAFYACF (disulfide 1-7 (inferred)) [C22del_cyc, TAT-I24 with a cyclized I24 peptide (CLAFYACF), cyclized via the two cysteine residues; previous study] | – | – | – | – | – | effect on localization of DiO-labelled MCMV [4]: no effect on localization of DiO-labelled MCMV
